Data published in EPA's ToxRefDB 2.

How the values were obtained:
rat [1] = details: Sub-acute repeat dose toxicity, Oral, Gavage/Intubation, dose end: 4 day, group: systemic
rat [2] = details: Sub-acute repeat dose toxicity, Oral, Gavage/Intubation, dose end: 4 day, group: systemic; remark: listed apart in the source
rat [3] = details: Sub-acute repeat dose toxicity, Oral, Gavage/Intubation, dose end: 4 day, group: systemic; remark: listed apart in the source
rat [4] = details: Sub-acute repeat dose toxicity, Oral, Gavage/Intubation, dose end: 4 day, group: systemic; remark: listed apart in the source
rat [5] = details: Subchronic oral toxicity in rodents, fischer, Feed, dose end: 13 week, group: systemic
rat [6] = details: Sub-acute repeat dose toxicity, fischer, Oral, Feed, dose end: 28 day, group: systemic
mouse = details: Prenatal developmental toxicity study; other; Oral; Gavage/Intubation; dose end: 18 GD; group: maternal; reproductive / reproductive performance / aborted / aborted + reproductive / reproductive performance / estrous cycle / corpora lutea
rat [7] = details: Carcinogenicity; fischer; Oral; Feed; dose end: 24 month; group: systemic; systemic / clinical chemistry / [other] / [other] + systemic / in life observation / body weight / body weight + systemic / in life …
rat [8] = details: Multigenerational reproductive toxicity study, sprague dawley, Oral, Gavage/Intubation, dose end: 1 generation
dog = details: Subchronic oral toxicity in nonrodent, beagle, Feed, dose end: 6 month, group: systemic, systemic / clinical chemistry / albumin-globulin ratio / albumin-globulin ratio + systemic / organ weight / liver / absolute + systemic / …
[9] = systemic / organ weight / liver / absolute
[10] = systemic / organ weight / liver / absolute + systemic / in life observation / clinical signs / salivation + systemic / pathology microscopic…
[11] = systemic / in life observation / body weight / body weight + systemic / organ weight / liver / absolute + systemic / in life observation / …
[12] = systemic / in life observation / body weight / body weight + systemic / in life observation / clinical signs / abnormal respiratory sounds…
[13] = systemic / in life observation / clinical signs / abnormal respiratory sounds + systemic / in life observation / clinical signs / fur (…
[14] = systemic / in life observation / body weight / body weight gain + systemic / pathology gross / stomach / thickened + systemic / pathology …
[15] = systemic / in life observation / food consumption / food consumption + systemic / pathology microscopic / stomach / hyperkeratosis + …
[16] = systemic / pathology microscopic / stomach / papilloma + systemic / in life observation / body weight / body weight + systemic / in life …
[17] = group: offspring, developmental / developmental landmark / vaginal opening / vaginal opening + systemic / clinical chemistry / cholesterol / cholesterol + …
[18] = group: offspring, systemic / organ weight / spleen / absolute
[19] = group: parental, systemic / organ weight / adrenal gland / absolute + systemic / organ weight / liver / absolute + systemic / organ weight / liver / relative…
[20] = group: parental, systemic / pathology gross / sperm measure / sperm morphology
[21] = group: reproductive, reproductive / reproductive performance / mating / mating + reproductive / reproductive performance / estrous cycle / length

CNCc1ccc(S(C)(=O)=O)cc1Oc1ccc2c(c1)CCCC2 showed an LEL (rat [1]; [9]) of 30 mg/kg/day, an NEL (rat [1]; [9]) of less than 30 mg/kg/day and an LOAEL (rat [1]; [10]) greater than 100 mg/kg/day. For the same compound, the NOAEL (rat [1]; [10]) was no less than 100 mg/kg/day, the LOAEL (rat [2]; [11]) was greater than 500 mg/kg/day and the NOAEL (rat [2]; [11]) was no less than 500 mg/kg/day. The LEL (rat [2]; [9]) was 30 mg/kg/day, the NEL (rat [2]; [9]) was less than 30 mg/kg/day and the LOAEL (rat [3]; [12]) was greater than 500 mg/kg/day. The NOAEL (rat [3]; [12]) was no less than 500 mg/kg/day, the LEL (rat [3]; [9]) was 30 mg/kg/day and the NEL (rat [3]; [9]) was less than 30 mg/kg/day. It also gave an LOAEL (rat [4]; [13]) greater than 500 mg/kg/day, an NEL (rat [4]; [13]) of 30 mg/kg/day and an NOAEL (rat [4]; [13]) of no less than 500 mg/kg/day. The LEL (rat [4]; systemic / in life observation / clinical signs / salivation) was 100 mg/kg/day.
COc1ccc(O)c(C(C)(C)C)c1 [Butylated hydroxyanisole] gave an LEL (rat [5]; systemic / clinical chemistry / [other] / [other]) of 250 mg/kg/day, an NEL (rat [5]; systemic / clinical chemistry / [other] / [other] + systemic / in life observation / body weight / body weight gain + systemic / in life …) of 125 mg/kg/day and an LOAEL (rat [5]; [14]) greater than 1000 mg/kg/day. For the same compound, the NOAEL (rat [5]; [14]) was no less than 1000 mg/kg/day, the LEL (rat [6]; [15]) was 350 mg/kg/day and the NEL (rat [6]; [15]) was less than 350 mg/kg/day. The LOAEL (rat [6]; [16]) was greater than 1400 mg/kg/day, the NOAEL (rat [6]; [16]) was no less than 1400 mg/kg/day and the LEL (mouse) was 500 mg/kg/day. The LOAEL (mouse) was greater than 500 mg/kg/day, the NEL (mouse) was less than 500 mg/kg/day and the NOAEL (mouse) was no less than 500 mg/kg/day. For the same compound, the LEL (rat [7]) was 1000 mg/kg/day, the LOAEL (rat [7]) was greater than 1000 mg/kg/day and the NEL (rat [7]) was less than 1000 mg/kg/day. It also gave an NOAEL (rat [7]) of no less than 1000 mg/kg/day, an LOAEL (rat [8]; [17]) greater than 500 mg/kg/day and an NOAEL (rat [8]; [17]) of no less than 500 mg/kg/day. It also gave an LEL (rat [8]; [18]) of 10 mg/kg/day, an NEL (rat [8]; [18]) of less than 10 mg/kg/day and an LOAEL (rat [8]; [19]) greater than 500 mg/kg/day. For the same compound, the NOAEL (rat [8]; [19]) was no less than 500 mg/kg/day, the LEL (rat [8]; [20]) was 10 mg/kg/day and the NEL (rat [8]; [20]) was less than 10 mg/kg/day. For the same compound, the NEL (rat [8]; group: reproductive, reproductive / reproductive performance / mating / mating) was 100 mg/kg/day, the LEL (rat [8]; [21]) was 500 mg/kg/day and the LOAEL (rat [8]; [21]) was greater than 500 mg/kg/day. For the same compound, the NOAEL (rat [8]; [21]) was no less than 500 mg/kg/day, the LEL (dog) was 54 mg/kg/day and the LOAEL (dog) was greater than 219 mg/kg/day. The NEL (dog) was less than 54 mg/kg/day and the NOAEL (dog) was no less than 219 mg/kg/day.
